Reference: patent publication US20070027150A1 (priority 2005, published 2007)

molecular target: His-tagged N-terminal ATP binding domain (amino acid residues 9-236) of HSP90α (Homo sapiens, UniProt P07900); assay: HSP90 inhibitor binding potency: TRF competition binding assay; settings: Table I; read-out: Hsp90 IC50 Range
Method: HSP90 Inhibitor Binding Potency: TRF Binding Assay
In this example, the binding potency of HSP90 inhibitors as measured by a TRF binding assay is described.
TRF competition binding assays were performed to determine the binding potency (IC50 values) of HSP90 inhibitors. Purified His-tagged N-terminal ATP binding domain (amino acid residues 9-236) of HSP90α (HSP90α GeneID: 3320; mRNA Sequence NM_005348) was incubated for two hours at room temperature in binding buffer (50 mM HEPES, 6 mM MgCl2, 20 mM KCl and 0.1% BSA) with biotinylated radicicol and progressively higher concentrations of the competing compounds. A fraction of the mixture was transferred to capture plates (coated with streptavidin) and incubated for one hour at room temperature. After washing with DELFIA wash buffer, europium-labeled anti-his antibody was added and incubated for two hours at room temperature, followed by washing with DELFIA buffer. DELFIA enhancement solution was then added. After gentle shaking for 10 minutes, the plates were read in VICTOR for europium counts.

Compared with `Cc1nc(N)nc2c1C(=O)CC(c1ccccc1-c1cnn(C)c1)C2` (stereo not shown) [Compound 43, 2-amino-4-methyl-7-[2-(1-methyl-1H-pyrazol-4-yl)phenyl]-7,8-dihydroquinazolin-5(6H)-one], `Cc1nc(N)nc2c1C(=O)CC(c1ccccc1-c1ccsc1)C2` (stereo not shown) [Compound 46, 2-amino-4-methyl-7-(2-thien-3-ylphenyl)-7,8-dihydroquinazolin-5(6H)-one] is lower in IC50: 1000 to 10000 nM for the first, under 1000 nM for the second. The second is the more potent here.

`Cc1nc(N)nc2c1C(=O)CC(c1ccccc1C1=CCCCC1)C2` (stereo not shown) [Compound 44, 2-amino-7-(2-cyclohex-1-en-1-ylphenyl)-4-methyl-7,8-dihydroquinazolin-5(6H)-one] and `Cc1nc(N)nc2c1C(=O)CC(c1c(O)cccc1C1=CCCCC1)C2` (stereo not shown) [Compound 62, 2-amino-7-(2-cyclohex-1-enyl-6-hydroxy-phenyl)-4-methyl-7,8-dihydro-6H-quinazolin-5-one] cannot be ordered by IC50: under 1000 nM for the first, under 1000 nM for the second.

`Cc1nc(N)nc2c1C(=O)CC(c1cccnc1C1=CCCCC1)C2` (stereo not shown) [Compound 45, 2-amino-7-(2-cyclohex-1-en-1-ylpyridin-3-yl)-4-methyl-7,8-dihydroquinazolin-5(6H)-one] and `COc1cccc(C2=CCCCC2)c1C1CC(=O)c2c(C)nc(N)nc2C1` (stereo not shown) [Compound 78, 2-amino-7-(2-cyclohex-1-en-1-yl-6-methoxyphenyl)-4-methyl-7,8-dihydroquinazolin-5(6H)-one] cannot be ordered by IC50: under 1000 nM for the first, under 1000 nM for the second.

`Cc1nc(N)nc2c1C(=O)CC(c1nn(C)cc1C1CCCCC1)C2` (stereo not shown) [Compound 47, 2-amino-7-(4-cyclohexyl-1-methyl-1H-pyrazol-3-yl)-4-methyl-7,8-dihydro-6H-quinazolin-5-one] and `Cc1nc(N)nc2c1C(=O)CC(c1c(C3CCCCC3)cnn1C)C2` (stereo not shown) [Compound 48, 2-amino-7-(4-cyclohexyl-2-methyl-2H-pyrazol-3-yl)-4-methyl-7,8-dihydro-6H-quinazolin-5-one] cannot be ordered by IC50: under 1000 nM for the first, under 1000 nM for the second.

`Cc1ccccc1-c1ccccc1C1CC(=O)c2c(C)nc(N)nc2C1` (stereo not shown) [Compound 49, 2-amino-4-methyl-7-(2′-methyl-1,1′-biphenyl-2-yl)-7,8-dihydroquinazolin-5(6H)-one] and `Cc1nc(N)nc2c1C(=O)CC(c1ccccc1-c1ccccc1F)C2` (stereo not shown) [Compound 51, 2-amino-7-(2′-fluoro-1,1′-biphenyl-2-yl)-4-methyl-7,8-dihydroquinazolin-5(6H)-one] cannot be ordered by IC50: under 1000 nM for the first, under 1000 nM for the second.

First: Cc1cccc(-c2ccccc2C2CC(=O)c3c(C)nc(N)nc3C2)c1 (stereo not shown) [Compound 50, 2-amino-4-methyl-7-(3′-methyl-1,1′-biphenyl-2-yl)-7,8-dihydroquinazolin-5(6H)-one]
Second: Cc1nc(N)nc2c1C(=O)CC(c1ccccc1-c1cccc(F)c1)C2 (stereo not shown) [Compound 52, 2-amino-7-(3′-fluoro-1,1′-biphenyl-2-yl)-4-methyl-7,8-dihydroquinazolin-5(6H)-one]
The IC50 of the first is higher: 1000 to 10000 nM for the first, under 1000 nM for the second. The second is the more potent here.

`Cc1nc(N)nc2c1C(=O)CC(c1ccccc1-c1ccc(F)cc1)C2` (stereo not shown) [Compound 53, 2-amino-7-(4′-fluoro-1,1′-biphenyl-2-yl)-4-methyl-7,8-dihydroquinazolin-5(6H)-one] and `Cc1nc(N)nc2c1C(=O)CC(c1ccccc1-c1ccc(F)nc1)C2` (stereo not shown) [Compound 56, 2-amino-7-[2-(6-fluoropyridin-3-yl)phenyl]-4-methyl-7,8-dihydroquinazolin-5(6H)-one] cannot be ordered by IC50: under 1000 nM for the first, under 1000 nM for the second.

`Cc1nc(N)nc2c1C(=O)CC(c1cccc(-c3cccnc3F)c1)C2` (stereo not shown) [Compound 54] and `Cc1nc(N)nc2c1C(=O)CC(c1cccc(-c3ccccc3F)c1)C2` (stereo not shown) [Compound 58] cannot be ordered by IC50: over 10000 nM for the first, over 10000 nM for the second.

`Cc1nc(N)nc2c1C(=O)CC(c1ccccc1-c1cccnc1F)C2` (stereo not shown) [Compound 55, 2-amino-7-[2-(2-fluoropyridin-3-yl)phenyl]-4-methyl-7,8-dihydroquinazolin-5(6H)-one] and `Cc1nc(N)nc2c1C(=O)CC(c1ccccc1-c1cccnc1Cl)C2` (stereo not shown) [Compound 80, 2-amino-7-[2-(2-chloropyridin-3-yl)phenyl]-4-methyl-7,8-dihydroquinazolin-5(6H)-one] cannot be ordered by IC50: under 1000 nM for the first, under 1000 nM for the second.

First: Cc1nc(N)nc2c1C(=O)CC(c1cccnc1-c1ccccc1F)C2 (stereo not shown) [Compound 57, 2-amino-7-[2-(2-fluorophenyl)pyridin-3-yl]-4-methyl-7,8-dihydroquinazolin-5(6H)-one]
Second: Cc1nc(N)nc2c1C(=O)CC(c1ccccc1-c1ccnc(Cl)c1)C2 (stereo not shown) [Compound 82, 2-amino-7-[2-(2-chloropyridin-4-yl)phenyl]-4-methyl-7,8-dihydroquinazolin-5(6H)-one]
The IC50 of the first is lower: under 1000 nM for the first, 1000 to 10000 nM for the second.

`Cc1nc(N)nc2c1C(=O)CC(c1ccccc1-c1c(C)noc1C)C2` (stereo not shown) [Compound 59, 2-amino-7-[2-(3,5-dimethylisoxazol-4-yl)phenyl]-4-methyl-7,8-dihydroquinazolin-5(6H)-one] and `Cc1ccc(-c2ccccc2C2CC(=O)c3c(C)nc(N)nc3C2)c(C)n1` (stereo not shown) [Compound 66, 2-amino-7-[2-(2,6-dimethylpyridin-3-yl)phenyl]-4-methyl-7,8-dihydroquinazolin-5(6H)-one] fall in the same range of IC50: 1000 to 10000 nM for the first, 1000 to 10000 nM for the second.

First: Cc1nc(N)nc2c1C(=O)CC(c1ccc(F)cc1-c1cncnc1)C2 (stereo not shown) [Compound 60, 2-amino-7-(4-fluoro-2-pyrimidin-5-yl-phenyl)-4-methyl-7,8-dihydro-6H-quinazolin-5-one]
Second: COc1ccc(-c2cncnc2)c(C2CC(=O)c3c(C)nc(N)nc3C2)c1 (stereo not shown) [Compound 75, 2-amino-7-(5-methoxy-2-pyrimidin-5-ylphenyl)-4-methyl-7,8-dihydroquinazolin-5(6H)-one]
The IC50 of the first is lower: under 1000 nM for the first, 1000 to 10000 nM for the second. The first is the more potent here.

First: Cc1nc(N)nc2c1C(=O)CC(c1cnccc1-c1cccnc1F)C2 (stereo not shown) [Compound 61, 2-amino-7-(2-fluoro-[3,4′]bipyridinyl-3′-yl)-4-methyl-7,8-dihydro-6H-quinazolin-5-one]
Second: Cc1nc(N)nc2c1C(=O)CC(c1c(-c3cccnc3F)cnn1C)C2 (stereo not shown) [Compound 64, 2-amino-7-[4-(2-fluoro-pyridin-3-yl)-2-methyl-2H-pyrazol-3-yl]-4-methyl-7,8-dihydro-6H-quinazolin-5-one]
The IC50 of the first is lower: under 1000 nM for the first, 1000 to 10000 nM for the second.

`Cc1nc(N)nc2c1C(=O)CC(c1nn(C)cc1-c1cccnc1F)C2` (stereo not shown) [Compound 63, 2-amino-7-[4-(2-fluoro-pyridin-3-yl)-1-methyl-1H-pyrazol-3-yl]-4-methyl-7,8-dihydro-6H-quinazolin-5-one] and `COc1ncccc1-c1ccccc1C1CC(=O)c2c(C)nc(N)nc2C1` (stereo not shown) [Compound 70, 2-amino-7-[2-(2-methoxypyridin-3-yl)phenyl]-4-methyl-7,8-dihydroquinazolin-5(6H)-one] cannot be ordered by IC50: under 1000 nM for the first, under 1000 nM for the second.

`Cc1nc(N)nc2c1C(=O)CC(c1ccccc1-c1cccc(C#N)c1)C2` (stereo not shown) [Compound 65, 2′-(2-amino-4-methyl-5-oxo-5,6,7,8-tetrahydroquinazolin-7-yl)-1,1′-biphenyl-3-carbonitrile] and `COc1cccc(-c2ccccc2C2CC(=O)c3c(C)nc(N)nc3C2)c1` (stereo not shown) [Compound 69, 2-amino-7-(3′-methoxy-1,1′-biphenyl-2-yl)-4-methyl-7,8-dihydroquinazolin-5(6H)-one] fall in the same range of IC50: 1000 to 10000 nM for the first, 1000 to 10000 nM for the second.

`Cc1nc(N)nc2c1C(=O)CC(c1ccccc1-c1ccccc1CO)C2` (stereo not shown) [Compound 67, 2-amino-7-[2′-(hydroxymethyl)-1,1′-biphenyl-2-yl]-4-methyl-7,8-dihydroquinazolin-5(6H)-one] and `Cc1nc(N)nc2c1C(=O)CC(c1ccccc1-c1ccccc1Cl)C2` (stereo not shown) [Compound 79, 2-amino-7-(2′-chloro-1,1′-biphenyl-2-yl)-4-methyl-7,8-dihydroquinazolin-5(6H)-one] cannot be ordered by IC50: under 1000 nM for the first, under 1000 nM for the second.

`Cc1nc(N)nc2c1C(=O)CC(c1ccccc1-c1ccccc1CO)C2` (stereo not shown) [Compound 68, 2-amino-7-[2′-(hydroxymethyl)-1,1′-biphenyl-2-yl]-4-methyl-7,8-dihydroquinazolin-5(6H)-one] and `Cc1ccc(F)c(-c2ccccc2C2CC(=O)c3c(C)nc(N)nc3C2)c1` (stereo not shown) [Compound 76, 2-amino-7-(2′-fluoro-5′-methyl-1,1′-biphenyl-2-yl)-4-methyl-7,8-dihydroquinazolin-5(6H)-one] cannot be ordered by IC50: under 1000 nM for the first, under 1000 nM for the second.

First: COc1ccc(-c2cccnc2)c(C2CC(=O)c3c(C)nc(N)nc3C2)c1 (stereo not shown) [Compound 71, 2-amino-7-(5-methoxy-2-pyridin-3-ylphenyl)-4-methyl-7,8-dihydroquinazolin-5(6H)-one]
Second: COc1cncc(-c2ccccc2C2CC(=O)c3c(C)nc(N)nc3C2)c1 (stereo not shown) [Compound 73, 2-amino-7-[2-(5-methoxypyridin-3-yl)phenyl]-4-methyl-7,8-dihydroquinazolin-5(6H)-one]
The IC50 of the first is lower: under 1000 nM for the first, 1000 to 10000 nM for the second.

First: COc1ccncc1-c1ccccc1C1CC(=O)c2c(C)nc(N)nc2C1 (stereo not shown) [Compound 72, 2-amino-7-[2-(4-methoxypyridin-3-yl)phenyl]-4-methyl-7,8-dihydroquinazolin-5(6H)-one]
Second: Cc1nc(N)nc2c1C(=O)CC(c1ccccc1-c1cnccc1Cl)C2 (stereo not shown) [Compound 81, 2-amino-7-[2-(4-chloropyridin-3-yl)phenyl]-4-methyl-7,8-dihydroquinazolin-5(6H)-one]
The IC50 of the first is higher: 1000 to 10000 nM for the first, under 1000 nM for the second.

First: COc1ccc(-c2ccccc2C2CC(=O)c3c(C)nc(N)nc3C2)cn1 (stereo not shown) [Compound 74, 2-amino-7-[2-(6-methoxypyridin-3-yl)phenyl]-4-methyl-7,8-dihydroquinazolin-5(6H)-one]
Second: Cc1ccc(-c2ccccc2C2CC(=O)c3c(C)nc(N)nc3C2)c(F)c1 (stereo not shown) [Compound 77, 2-amino-7-(2′-fluoro-4′-methyl-1,1′-biphenyl-2-yl)-4-methyl-7,8-dihydroquinazolin-5(6H)-one]
The IC50 of the first is higher: 1000 to 10000 nM for the first, under 1000 nM for the second. The second is the more potent here.
